Reference: US20240002846A1, “COMPOSITIONS AND METHODS FOR THE DIAGNOSIS AND TREATMENT OF ITCH” (Duke University, priority 2020, published 2024)
“Also recorded” adds a separate entry of the source.

Legend:
[1] = system: mice; experiment: Scratching behavior after i.d. injection into dorsal neck skin; assay type: in vivo, mouse; conditions: for scratching behavior (itch) induced by i.d. injection of lipid: i.d. into dorsal neck, LPA 18:1 500 μg, LPC 50-500 μg, LPC species at the same dose
Method: (§1) Behavioral assessment. Mice were shaved at the dorsal neck 1 d before experiments. Mice were allowed to acclimate to a Plexiglas chamber for at least 30 min before testing and received intradermal (i.d.) injection of 50 μL of LPA 18:1, LPC, LPC 14:0, LPC 16:0, LPC 18:0, LPC 18:1, miR-146a mimic, miR-146a scramble, ATP or vehicles through a 30-gauge needle (Becton Dickinson, Franklin Lakes, NJ) into the neck skin. After injections, mice were immediately placed back to the chamber, and the scratching behavior was recorded by a Panasonic video camera for 30 min. Hind limb scratching behavior directed toward the injected area at the nape of neck was observed. One scratch is defined as a lifting of the hind limb toward the injection site and then a replacing of the limb back to the floor, regardless of how many scratching strokes take place between those two movements. Behavioral analysis was conducted by observers blinded to genotype.

[2] = system: mouse keratinocytes; experiment: Ca2+ imaging in cultured mouse keratinocytes; assay type: cell-based; conditions: for effect on LPC 18:1 (10 μM)-induced Ca2+ influx (GPCR-signaling inhibitors): inhibitor 10 μM; for LPA (18:1) induced Ca2+ influx: up to 30 μM
Method: Basal keratinocytes were separated from the cornified sheets by filtration through a […] cell strainer. Keratinocytes were plated on collagen I-coated dishes or glass coverslips and grown in EME media (Gibco, Gaithersburg, MD) containing 8% chelex (Bio-rad, Hercules, CA)-treated FBS with the final Ca^2+ adjusted to 0.05 mM, bovine pituitary extract (50 μg/mL), epidermal growth factor (5 ng/mL), and lx antibiotics/antimycotics (Gibco, Gaithersburg, MD) in a humidified incubator with 5% CO2 at 37° C. for 5-7 days until use. To knockdown Trpv4 in isolated keratinocytes from newborn keratinocyte-Trpv4 cKO mice, cells were treated with 4-OH tamoxifen at 500 nM for 72 h.
(§2) In vitro and ex vivo Ca^2+ imaging. […] Ca^2+ imaging of cultured cells in response to chemicals was conducted after loading with 5 μM Fura2-AM (Invitrogen, Waltham, MA) for 45 min after a ratiometric Ca^2+-imaging protocol with 340/380-nm blue light for dual excitation. Ratios of emissions were acquired at 0.5 Hz. ΔR/R0 was determined as the fraction of the increase of a given ratio over baseline ratio divided by baseline ratio. […] Control cells received vehicles.

[3] = system: human keratinocytes; experiment: Ca2+ imaging in cultured human keratinocytes; assay type: cell-based; conditions: for effect on LPC 18:1 (10 μM)-induced Ca2+ influx (GPCR-signaling inhibitors): inhibitor 10 μM; for LPA (18:1) induced Ca2+ influx: up to 30 μM
Method: In brief, surgically discarded foreskin samples, obtained from Duke Children's Hospital in accordance to institutionally approved IRB protocol, were incubated with Dispase (Gibco, Gaithersburg, MD, 4 U/mL) for 12-16 h at 4° C. followed by 0.05% trypsin (Gibco, Gaithersburg, MD) for 10-20 min at 37° C. Cells were maintained in keratinocyte serum-free media (Invitrogen, Waltham, MA) with 5% CO2 at 37° C. and used at passage 2-3.
as §2

[4] = target: T1, hTRPV4 (Homo sapiens, UniProt Q9HBA0); experiment: Ca2+ imaging in HEK cells transfected with hTRPV4; assay type: cell-based; conditions: inhibitor 10 μM
T1 construct: expressed in transfected cells; host or cells: HEK293 (ATCC CRL-1573)
Method: Cell culture and transfection. HEK293 cells (ATCC® CRL-1573) were cultured on poly-D-lysine coated coverslips in 24-well plate containing DMEM media with high-Glucose (Gibco, Gaithersburg, MD) supplemented with 10% fetal bovine serum (FBS, HyClone Laboratories, Logan, UT) and 100 U/mL of penicillin/streptomycin (Gibco, Gaithersburg, MD). Cell cultures were maintained with 5% of CO2 in a humidified incubator at 37° C. HEK cells were transfected with rat or human wild type or mutant TRPV4 channels with EGFP or YFP coupled to their C-termini (1.5 μg of plasmid for excised patch clamp and Ca^2+ imaging and 200 ng for single-channel experiments). The jetPEI™ Polyplus transfection reagent (Polyplus Transfection, New York, NY) for electrophysiology or Lipofectamine™ 2000 Reagent (Invitrogen, Waltham, MA) for Ca^2+ imaging were used for transfections per manufacturer's instructions as previously described (Chen et al. Pain 2014, 155, 2662-2672; Morales-Lazaro et al. Nat. Commun. 2016, 7, 13092). To investigate whether miR-146a can directly activate TRPV1 channels or indirectly via TLRs, HEK293 cells were transfected with rTRPV1 or co-transfected rTRPV1 with rTLR7, rTLR2, or rTLR6 (Addgene, Watertown, MA) for Ca^2+ imaging assay. Control cells were transfected with GFP or YFP.
In vitro and ex vivo Ca^2+ imaging. Routine procedures were followed for Ca^2+ imaging in cultured DRG sensory neurons, epidermal keratinocytes, and HEK cells (Chen et al. J. Biol. Chem. 2016, 291, 10252-10262; Chen et al. Pain 2014, 155, 2662-2672). Ca^2+ imaging of cultured cells in response to chemicals was conducted after loading with 5 μM Fura2-AM (Invitrogen, Waltham, MA) for 45 min after a ratiometric Ca^2+-imaging protocol with 340/380-nm blue light for dual excitation. Ratios of emissions were acquired at 0.5 Hz. ΔR/R0 was determined as the fraction of the increase of a given ratio over baseline ratio divided by baseline ratio. To investigate the effects of the TRPV4 inhibitors GSK205 or HC067047, the PLC inhibitor U73122, the Gag G Protein inhibitor BIM46187, the Gβγ G protein inhibitor Gallein, the TRPV1 inhibitor SB366791, the TRPA1 inhibitor HC030031, and IPP for TRPV3, on LPA-induced Ca^2+ influx, LPC-induced Ca^2+ influx, or miR-146α-induced Ca^2+ influx, cells were incubated with the inhibitors for 15 min before stimulation. Control cells received vehicles.

[5] = system: mice; experiment: Effect of inhibitor pretreatment on LPA-, LPC- or miR-146a-induced scratching behavior; assay type: in vivo, mouse; conditions: for effect on scratching evoked by i.d. miR-146a (4 nmol) (TLR inhibitors): i.p. 10 mg/kg
Method: as §1, with “Mice were allowed to acclimate to a Plexiglas chamber for at least 30 min before testing and received intradermal (i.d.) injection of 50 μL of LPA 18:1, LPC, LPC 14:0, LPC 16:0, LPC 18:0, LPC 18:1, miR-146a mimic, miR-146a scramble, ATP or vehicles through a 30-gauge needle (Becton Dickinson, Franklin Lakes, NJ) into the neck skin.” left out
Control animals received the same volume of vehicles.
Lumbar puncture was made with a 30G-needle and drugs at 5 μL of volume were delivered. Scratching behavior assay was started approximately 2 weeks after resiniferatoxin treatment.

T1 sequence (Q9HBA0 whole entry): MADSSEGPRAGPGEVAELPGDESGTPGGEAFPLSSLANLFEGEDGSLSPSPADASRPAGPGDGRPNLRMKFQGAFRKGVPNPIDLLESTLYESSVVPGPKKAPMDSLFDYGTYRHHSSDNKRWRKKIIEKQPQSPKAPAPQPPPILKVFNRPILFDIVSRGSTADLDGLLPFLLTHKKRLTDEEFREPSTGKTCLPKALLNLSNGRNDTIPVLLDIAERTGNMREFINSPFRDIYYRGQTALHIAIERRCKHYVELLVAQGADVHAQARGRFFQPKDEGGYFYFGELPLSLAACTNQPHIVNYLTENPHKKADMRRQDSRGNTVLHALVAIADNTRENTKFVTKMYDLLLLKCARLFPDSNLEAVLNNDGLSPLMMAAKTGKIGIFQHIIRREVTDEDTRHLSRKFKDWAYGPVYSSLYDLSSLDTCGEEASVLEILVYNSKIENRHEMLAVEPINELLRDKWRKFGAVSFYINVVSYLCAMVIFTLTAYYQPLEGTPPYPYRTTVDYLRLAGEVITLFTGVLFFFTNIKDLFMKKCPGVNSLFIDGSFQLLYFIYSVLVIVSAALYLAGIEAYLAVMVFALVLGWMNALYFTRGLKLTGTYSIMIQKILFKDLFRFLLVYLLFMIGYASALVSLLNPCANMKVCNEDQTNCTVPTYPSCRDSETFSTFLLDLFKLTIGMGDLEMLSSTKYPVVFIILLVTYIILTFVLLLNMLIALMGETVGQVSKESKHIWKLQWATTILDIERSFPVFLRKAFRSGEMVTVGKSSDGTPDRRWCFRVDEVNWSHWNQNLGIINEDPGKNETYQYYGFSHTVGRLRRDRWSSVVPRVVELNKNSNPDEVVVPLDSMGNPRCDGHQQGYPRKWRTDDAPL

Molecule: Nc1ncnc2c1ncn2[C@@H]1O[C@H](COP(=O)(O)OP(=O)(O)OP(=O)(O)O)[C@@H](O)[C@H]1O [ATP, adenosine triphosphate]
- scratching behavior induced by i.d. ATP ([1]; i.d. 10 nmol or 100 nmol vs normal saline): not to have any pruritogenic effects; also recorded: did not elicit significant scratching behaviors

Molecule: N[C@@H](CSSC[C@H](N)C(=O)N1CCn2cc(-c3ccccc3)nc2[C@@H]1CC1CCCCC1)C(=O)N1CCn2cc(-c3ccccc3)nc2[C@@H]1CC1CCCCC1 [BIM46187]
- effect on LPC 18:1 (10 μM)-induced Ca2+ influx (GPCR-signaling inhibitors) [2]: not significantly altered
- effect on LPC 18:1 (10 μM)-induced Ca2+ influx (GPCR-signaling inhibitors) ([2]; listed as BIM-46187): no inhibitory effects
- effect on LPC 18:1 (10 μM)-induced Ca2+ influx (GPCR-signaling inhibitors) [3]: not significantly altered
- effect on LPC 18:1 (10 μM)-induced Ca2+ influx (GPCR-signaling inhibitors) ([3]; listed as BIM-46187): no inhibitory effects
- effect on LPC 18:1 (10 μM)-induced Ca2+ influx (GPCR-signaling inhibitors) [4]: not significantly altered
- effect on LPC 18:1 (10 μM)-induced Ca2+ influx (GPCR-signaling inhibitors) ([4]; listed as BIM-46187): no inhibitory effects

Molecule: c1cc(-c2nc3ccc(OCCCN4CCCC4)cc3o2)ccc1OCCCN1CCCC1 [E6446]
- effect on scratching evoked by i.d. miR-146a (4 nmol) (TLR inhibitors) [5]: not significantly altered

Molecule: O=C(O)CC1CC(c2ccccc2)=NO1 (centres unmarked) [GIT27]
- effect on scratching evoked by i.d. miR-146a (4 nmol) (TLR inhibitors) [5]: not significantly altered

Molecule: O=C1OC2(c3ccccc31)c1ccc(O)c(O)c1Oc1c2ccc(O)c1O [Gallein]
- effect on LPC 18:1 (10 μM)-induced Ca2+ influx (GPCR-signaling inhibitors) [2]: no inhibitory effects; also recorded: not significantly altered
- effect on LPC 18:1 (10 μM)-induced Ca2+ influx (GPCR-signaling inhibitors) [3]: no inhibitory effects; also recorded: not significantly altered
- effect on LPC 18:1 (10 μM)-induced Ca2+ influx (GPCR-signaling inhibitors) [4]: no inhibitory effects; also recorded: not significantly altered

Molecule: O=C(CCN1CCN(C(=O)OCc2cc(Cl)cc(Cl)c2)CC1)c1ccc2[nH]c(=O)oc2c1 [PF8380]
- effect on LPC-induced itch (autotaxin inhibitor), WT mice ([5]; i.p. pretreatment 10 mg/kg, WT mice): attenuated

Molecule: COc1ccc2c(c1)CC[C@@H]1[C@@H]2CC[C@]2(C)[C@@H](NCCCCCCN3C(=O)C=CC3=O)CC[C@@H]12 [U73122]
- effect on LPC 18:1 (10 μM)-induced Ca2+ influx (GPCR-signaling inhibitors) [2]: no inhibitory effects; also recorded: not significantly altered
- effect on LPC 18:1 (10 μM)-induced Ca2+ influx (GPCR-signaling inhibitors) [3]: no inhibitory effects; also recorded: not significantly altered
- effect on LPC 18:1 (10 μM)-induced Ca2+ influx (GPCR-signaling inhibitors) [4]: no inhibitory effects; also recorded: not significantly altered

Molecule: LPC 14:0
- scratching behavior (itch) induced by i.d. injection of lipid [1]: caused robust itch

Molecule: lysophosphatidic acid [LPA (18:1)]
- LPA (18:1) induced Ca2+ influx [2]: not dose-dependent and was less robust than that of LPC
- LPA (18:1) induced Ca2+ influx ([2]; listed as LPA): much reduced
- LPA (18:1) induced Ca2+ influx [3]: not dose-dependent and was less robust than that of LPC
- LPA (18:1) induced Ca2+ influx ([3]; listed as LPA): much reduced
- scratch bouts ([1]; i.d. 500 μg into dorsal neck, WT mice): 58 scratch bouts in 30 min
- scratching behavior (itch) induced by i.d. injection of lipid [1]: elicited moderate scratching; also recorded: induced itch
